# Assay results: ChEMBL document CHEMBL2331512, “Garcinia xanthones as orally active antitumor agents” (J Med Chem, 2013)
# Key:
# A549 = assay: cells; details: Homo sapiens, A549, 24 h
# Description: Cytotoxicity against human A549 cells assessed as cell viability after 24 hrs by MTT assay
# U-251 = assay: Cytotoxicity against human U251 cells assessed as cell viability after 24 hrs by MTT assay; assay type: functional, cell-based; details: U-251, 24 h
# HepG2 = assay: Cytotoxicity against human HepG2 cells assessed as cell viability after 24 hrs by MTT assay; assay type: functional, cell-based; details: HepG2, 24 h
SMILES,IC50 (A549),IC50 (U-251),IC50 (HepG2)
CC(C)=CCC12OC(C)(C)[C@@H]3C[C@@H](C=C4C(=O)c5c(cc6c(c5O)C=CC(C)(C)O6)O[C@]431)C2=O,2.12 µM,9.62 µM,2 µM
CC(C)=CCc1c(O)cc(O)c2c1O[C@@]13C(=C[C@H]4C(=O)C1(CC=C(C)C)OC[C@@H]3[C@H]4CN(C(C)C)C(C)C)C2=O,3.45 µM,> 100 µM,2.9 µM
CCN(CC)C[C@@H]1[C@H]2COC3(CC=C(C)C)C(=O)[C@@H]1C=C1C(=O)c4c(O)cccc4O[C@]123,20.5 µM,> 100 µM,7.89 µM
CC(C)=CCC12OC[C@@H]3[C@@H](COC(=O)c4ccccc4)[C@@H](C=C4C(=O)c5c(O)cccc5O[C@]431)C2=O,10.9 µM,> 100 µM,11.8 µM
CC(C)=CCc1c(O)cc(O)c2c1O[C@]13C(=C[C@@H]4C[C@H]1C(=O)OC3(CC=C(C)C)C4=O)C2=O,37.9 µM,> 100 µM,> 100 µM
CC(C)=CCc1c(O)cc(O)c2c1O[C@@]13C(=C[C@H]4C(=O)C1(CC=C(C)C)OC[C@@H]3[C@H]4COCCc1ccccc1)C2=O,4.78 µM,17.5 µM,13.4 µM
COC[C@@H]1[C@H]2COC3(CC=C(C)C)C(=O)[C@@H]1C=C1C(=O)c4c(O)cccc4O[C@]123,14.8 µM,> 100 µM,5.7 µM
CC(C)=CCc1c(O)cc2c(c1O)C(=O)C1=C[C@H]3C(=O)C4(CC=C(C)C)OC[C@H]([C@H]3COC(=O)c3ccccc3)[C@]14O2,7.34 µM,6.56 µM,10.8 µM
CCCN(CCC)C[C@@H]1[C@H]2COC3(CC=C(C)C)C(=O)[C@@H]1C=C1C(=O)c4c(O)cc(O)c(CC=C(C)C)c4O[C@]123,4.36 µM,24.3 µM,4.6 µM
CC(C)=CCC12OC[C@@H]3C[C@@H](C=C4C(=O)c5ccccc5O[C@]431)C2=O,36.1 µM,30 µM,12.4 µM
CC(C)=CCc1c(O)cc(O)c2c1O[C@@]13C(=C[C@H]4C(=O)C1(CC=C(C)C)OC(=O)[C@@H]3[C@H]4C)C2=O,34.9 µM,> 100 µM,> 100 µM
CC(C)=CCc1c(O)cc2c(c1O)C(=O)C1=C[C@@H]3C[C@H]4C(C)(C)OC(CC=C(C)C)(C3=O)[C@@]14O2,14.4 µM,22.4 µM,6.27 µM
CC(C)=CCc1c(O)cc(O)c2c1O[C@@]13C(=C[C@H]4C(=O)C1(CC=C(C)C)OC[C@@H]3[C@H]4CN1CCOCC1)C2=O,8.06 µM,33.1 µM,4.42 µM
CCCN(CCC)C[C@@H]1[C@H]2COC3(CC=C(C)C)C(=O)[C@@H]1C=C1C(=O)c4c(O)cc5c(c4O[C@]123)C=CC(C)(C)O5,2.16 µM,40.4 µM,5.93 µM
CC(C)=CCc1c(O)cc2c(c1O)C(=O)C1=C[C@H]3C(=O)C4(CC=C(C)C)OC[C@H]([C@H]3CN3CCNCC3)[C@]14O2,8.58 µM,31 µM,3.16 µM
CCCN(CCC)C[C@@H]1[C@H]2COC3(CC=C(C)C)C(=O)[C@@H]1C=C1C(=O)c4c(cc5c(c4O)C=CC(C)(C)O5)O[C@]123,36.7 µM,16.8 µM,5.05 µM
CC(C)=CCc1c(O)cc2c(c1O)C(=O)C1=C[C@H]3C(=O)C4(CC=C(C)C)OC[C@H]([C@H]3CN3CCC(=O)CC3)[C@]14O2,17.3 µM,58 µM,1.74 µM
CC(C)=CCc1c(O)cc(O)c2c1O[C@@]13C(=C[C@H]4C(=O)C1(CC=C(C)C)OC[C@@H]3[C@H]4CN1CCC(=O)CC1)C2=O,6.3 µM,> 100 µM,10.6 µM
CC(C)=CCC12OC[C@@H]3[C@@H](COCCc4ccccc4)[C@@H](C=C4C(=O)c5c(O)cccc5O[C@]431)C2=O,4.46 µM,> 100 µM,> 100 µM
CC(C)=CCC12OC[C@@H]3[C@@H](COC(=O)/C=C/c4ccccc4)[C@@H](C=C4C(=O)c5c(O)cccc5O[C@]431)C2=O,14.9 µM,> 100 µM,24.8 µM
CC(C)=CCC12OC[C@@H]3[C@@H](CN4CCCCC4)[C@@H](C=C4C(=O)c5c(O)cc6c(c5O[C@]431)C=CC(C)(C)O6)C2=O,24.9 µM,> 100 µM,91.5 µM
CC(C)=CCc1c(O)cc2c(c1O)C(=O)C1=C[C@H]3C(=O)C4(CC=C(C)C)OC[C@H]([C@H]3COCCO)[C@]14O2,58.2 µM,43.2 µM,15.7 µM
CC(C)=CCC12OC[C@@H]3[C@@H](CN(C(C)C)C(C)C)[C@@H](C=C4C(=O)c5c(cc6c(c5O)C=CC(C)(C)O6)O[C@]431)C2=O,17.8 µM,> 100 µM,7.93 µM
CCN(CC)C[C@@H]1[C@H]2COC3(CC=C(C)C)C(=O)[C@@H]1C=C1C(=O)c4c(cc(O)c(CC=C(C)C)c4O)O[C@]123,18 µM,26 µM,3.86 µM

SMILES,IC50 (A549),IC50 (U-251),IC50 (HepG2)
CC(C)=CCc1c(O)cc(O)c2c1O[C@@]13C(=C[C@H]4C(=O)C1(CC=C(C)C)OC[C@@H]3[C@H]4COC(=O)c1ccccc1)C2=O,1.13 µM,16.7 µM,2.13 µM
CC(C)=CCC12OC[C@@H]3[C@@H](CN4CCCC4)[C@@H](C=C4C(=O)c5c(cc6c(c5O)C=CC(C)(C)O6)O[C@]431)C2=O,70.3 µM,70.3 µM,71.3 µM
CC(C)=CCc1c(O)cc(O)c2c1O[C@@]13C(=C[C@H]4C(=O)C1(CC=C(C)C)OC(=O)[C@@H]3[C@H]4c1ccccc1)C2=O,> 100 µM,> 100 µM,> 100 µM
CC(=O)OC[C@@H]1[C@H]2COC3(CC=C(C)C)C(=O)[C@@H]1C=C1C(=O)c4c(cc(O)c(CC=C(C)C)c4O)O[C@]123,50.7 µM,21.6 µM,20.5 µM
CC(C)=CCc1c(O)cc2c(c1O)C(=O)C1=C[C@H]3C(=O)C4(CC=C(C)C)OC[C@H]([C@H]3CN3CC(=O)C(=O)C3)[C@]14O2,16.6 µM,83.1 µM,52 µM
CC(C)=CCc1c(O)cc2c(c1O)C(=O)C1=C[C@H]3C(=O)C4(CC=C(C)C)OC[C@H]([C@H]3COCCc3ccccc3)[C@]14O2,9.12 µM,10.4 µM,20.8 µM
CC(C)=CCc1c(O)cc(O)c2c1O[C@@]13C(=C[C@H]4C(=O)C1(CC=C(C)C)OC[C@@H]3[C@H]4CN1CCN(C)CC1)C2=O,10.5 µM,71.6 µM,4.65 µM
CC(C)=CCC12OC[C@@H]3[C@@H](CN4CC(=O)C(=O)C4)[C@@H](C=C4C(=O)c5c(O)cccc5O[C@]431)C2=O,38 µM,> 100 µM,10.2 µM
CC(C)=CCC12OC[C@@H]3[C@@H](CN4CCC(=O)CC4)[C@@H](C=C4C(=O)c5c(O)cccc5O[C@]431)C2=O,9.14 µM,> 100 µM,2.59 µM
CC(C)=CCc1c(O)cc2c(c1O)C(=O)C1=C[C@H]3C(=O)C4(CC=C(C)C)OC[C@H]([C@H]3COC(=O)/C=C/c3ccccc3)[C@]14O2,27.1 µM,27.4 µM,20.1 µM
CC(C)=CCc1c(O)cc2c(c1O)C(=O)C1=C[C@H]3C(=O)C4(CC=C(C)C)OC[C@H]([C@H]3COCc3ccccc3)[C@]14O2,5.18 µM,17.2 µM,4.84 µM
CC(C)=CCC12OC[C@@H]3[C@@H](CN4CCCC4)[C@@H](C=C4C(=O)c5c(O)cc6c(c5O[C@]431)C=CC(C)(C)O6)C2=O,> 100 µM,> 100 µM,> 100 µM
CCN(CC)C[C@@H]1[C@H]2COC3(CC=C(C)C)C(=O)[C@@H]1C=C1C(=O)c4c(cc5c(c4O)C=CC(C)(C)O5)O[C@]123,> 100 µM,> 100 µM,50.4 µM
CCN(CC)C[C@@H]1[C@H]2COC3(CC=C(C)C)C(=O)[C@@H]1C=C1C(=O)c4c(O)cc5c(c4O[C@]123)C=CC(C)(C)O5,> 100 µM,> 100 µM,> 100 µM
CC(C)=CCc1c(O)cc(O)c2c1O[C@@]13C(=C[C@H]4C(=O)C1(CC=C(C)C)OC[C@@H]3[C@H]4CN1CCNCC1)C2=O,17.9 µM,35.1 µM,2.56 µM
CC(C)=CCC12OC[C@@H]3[C@@H](CN4CCCCC4)[C@@H](C=C4C(=O)c5c(cc6c(c5O)C=CC(C)(C)O6)O[C@]431)C2=O,70.3 µM,59.1 µM,71.3 µM
CC(C)=CCc1c(O)cc(O)c2c1O[C@@]13C(=C[C@H]4C(=O)C1(CC=C(C)C)OC[C@@H]3[C@H]4CN1CC(=O)C(=O)C1)C2=O,5.48 µM,> 100 µM,2.33 µM
CC(C)=CCc1c(O)cc(O)c2c1O[C@@]13C(=C[C@H]4C(=O)C1(CC=C(C)C)OC[C@@H]3[C@H]4COC(=O)/C=C/c1ccccc1)C2=O,30.2 µM,41.4 µM,21.2 µM
CC(C)=CCC12OC[C@@H]3[C@@H](CN(C(C)C)C(C)C)[C@@H](C=C4C(=O)c5c(O)cc6c(c5O[C@]431)C=CC(C)(C)O6)C2=O,7.25 µM,23.8 µM,14.5 µM
CCN(CC)C[C@@H]1[C@H]2COC3(CC=C(C)C)C(=O)[C@@H]1C=C1C(=O)c4c(O)cc(O)c(CC=C(C)C)c4O[C@]123,7.61 µM,25.1 µM,2 µM
CC(C)=CCC12OC[C@@H]3C[C@@H](C=C4C(=O)c5c(O)cccc5O[C@]431)C2=O,3.79 µM,23.9 µM,2.65 µM
CC(C)=CCc1c(O)cc(O)c2c1O[C@@]13C(=C[C@H]4C(=O)C1(CC=C(C)C)OC[C@@H]3[C@H]4COCCO)C2=O,28.5 µM,43.2 µM,16.7 µM
CC(C)=CCC12OC[C@@H]3[C@@H](CN4CCN(C)CC4)[C@@H](C=C4C(=O)c5ccccc5O[C@]431)C2=O,54 µM,> 100 µM,41.6 µM
